{
  "source": "patent EP4786486A1",
  "about": "“PEPTIDES FOR TREATING CARDIAC DISEASES” (Universidad Complutense De Madrid, priority 2023, dated 2025)",
  "key": {"[1]": {"system": "murine model of CI with reduced ejection fraction (HFrEF)", "assay": "Murine model of CI (transverse aortic constriction): capacitance, INa and IK1 of dissociated cardiomyocytes", "assay_type": "in vivo, mice", "text": "(§1) A murine model of CI with reduced ejection fraction (HFrEF) was used to analyse the effect of SEQ ID NO: 3 on the decrease in INa and IK1 caused by electrical remodelling associated with Cl. The mice are subjected to transverse aortic constriction (TAC) with ligation, and pressure overload leads to the occurrence of cardiac hypertrophy and Cl. The mice were produced at the Medical Research Centre of the University of Navarra (CIMA), under the direction of Dr Aránzazu González Miqueo.\n(§2) Eight-week-old mice were administered 3.5×10^10 particles of adeno-associated virus type 9 that encoded either the fluorescent reporter td-Tomato (Aav-dt-T) alone, or the reporter and the peptide DECA-11. At 12 weeks of age, an echocardiographic check-up (baseline) was performed and at week 13 they underwent surgery in which the aorta was ligated (TAC animals) or not (Sham animals).\n(§3) That same week they were sent to the UCM animal facility. Next, the mice were heparinised and anaesthetised and then sacrificed by cervical dislocation, at a rate of one per day, and a thoracotomy was performed to remove the heart which was mounted through the aorta into a cannula connected to a Langendorff apparatus for enzymatic dissociation of the cardiac myocytes. After removal of the heart, said heart was cannulated through the aorta and placed in a Langendorff apparatus. First, the hearts were perfused with modified Tyrode's solution (composition in mM: 136 NaCI, 4 KCI, 2 MgCl2, 1.8 CaCl2, 10 HEPES, 10 glucose, 3 pyruvic acid and 0.1 thiamine, pH=7.4 with NaOH) bubbled with oxygen and at 37°C for 3-5 minutes. Subsequently, they were perfused for another 8 minutes with the same solution without CaCl2. After 1-2 minutes, the heart stops beating. Next, they were perfused with Tyrode's solution without CaCl2 supplemented with 120 u/ml collagenase type II from Worthington and 0.5 u/ml protease XIV from Sigma. Lastly, the hearts were perfused with a solution called KB of the following composition (mM): 25 KCI, 10 KH2PO4, 2 MgCI2, 0.5 EGTA-K, 5 HEPES-K, 100 glutamic acid, 10 aspartic acid, 20 taurine, 5 creatine and 10 glucose (pH=7.2 with KOH). After this process has been completed, the heart was detached from the cannula and shaken in aliquots of KB solution where the myocytes were disintegrated and stored in the refrigerator for at least one hour before electrophysiological recordings were started.\nCapacitance is an indirect and reliable measure of cell size. As can be observed, there was no significant difference in the capacitance of myocytes from Sham animals, had they been infected with Ad-td-Tomato (control) or with Aav-DECA-11.\nTo record INa in mouse cardiomyocytes, the composition of the external solution was (mM): 4 NaCl, 1 MgCl2, 1 CaCl2, 0.1 CdCl2, 133.5 CsCl, 20 HEPES and 11 glucose (pH=7.35 with CsOH) and the solution that filled the recording micropipette was (mM): 10 NaF, 110 CsF, 20 CsCl, 10 HEPES and 10 EGTA (pH 7.35 with CsOH). All other protocols and conditions were the same as those used for recording INa in human iPSC-derived cardiomyocytes (according to Example 2.3).\n(§4) As indicated above, IK1 was also recorded in mouse cardiomyocytes from all four groups. […] In fact, the density of IK1 in TAC animals pretreated with DECA-11 is not different from that recorded in Sham animals."}, "[2]": {"system": "dissociated cardiomyocytes from Sham and TAC mice", "assay": "Capacitance (cell size) of dissociated cardiomyocytes, murine TAC model of HFrEF", "assay_type": "in vivo", "conditions": "TAC animals treated with DECA-11 (AAV9) vs. untreated TAC animals", "text": "as §1, §2\nThat same week they were sent to the UCM animal facility. Next, the mice were heparinised and anaesthetised and then sacrificed by cervical dislocation, at a rate of one per day, and a thoracotomy was performed to remove the heart which was mounted through the aorta into a cannula connected to a Langendorff apparatus for enzymatic dissociation of the cardiac myocytes. […]"}, "human Kir2.1 channels": {"system": "human Kir2.1 channels", "assay": "IKir2.1 density, whole-cell patch-clamp in CHO cells co-transfected with Kir2.1 and the cDNA encoding the peptide", "assay_type": "cell-based", "conditions": "CHO cells co-transfected with cDNA SEQ ID NO: 5; vs. cells transfected only with Kir2.1 channels; P<0.05", "protocol": "To do this, CHO cells were transfected with the cDNA that encodes the human cardiac channels (Kir2.1) that generate IK1 (Origene, USA) (SEQ ID NO: 22), co-transfecting cells, or not, with the cDNA described in SEQ ID NO: 5. […] The sampling frequency was 4 kHz and the data, filtered at a frequency of 2 kHz, were stored on hard disks for further analysis using the CLAMPFIT application of the pCLAMP software. The current (IKir2.1) was recorded by applying 250 ms pulses from -120 to +20 mV from a holding potential of -60 mV. The density of the same was obtained by normalising the amplitude of IKir2.1 at the end of the pulse by the capacitance of each cell (pA/pF). […] Like in example 2.1, each point represents the mean±SEM of \"n\" experiments obtained from at least 3 different CHO cell plates. One-way ANOVA followed by the Tukey test. * P<0.05 vs. cells transfected only with Kir2.1 channels."}, "[3]": {"system": "dissociated cardiomyocytes from Sham and TAC mice", "assay": "IK1 density in dissociated cardiomyocytes, murine TAC model of HFrEF", "assay_type": "in vivo", "conditions": "for IK1: administration of DECA-11 (AAV9)", "text": "as §1, §2\nas §3, with “Lastly, the hearts were perfused with a solution called KB of the following composition (mM): 25 KCI, 10 KH2PO4, 2 MgCI2, 0.5 EGTA-K, 5 HEPES-K, 100 glutamic acid, 10 aspartic acid, 20 taurine, 5 creatine and 10 glucose (pH=7.2 with KOH). After this process has been completed, the heart was detached from the cannula and shaken in aliquots of KB solution where the myocytes were disintegrated and stored in the refrigerator for at least one hour before electrophysiological recordings were started.” left out\nas §4"}, "[4]": {"system": "human iPSC-derived cardiomyocytes", "conditions": "hiPSC-CM; sustained current sensitive to TTX (10 µM), as percentage of the current peak; 500 ms pulses from -120 to -45 mV"}, "[5]": {"conditions": "cardiomyocytes from Sham animals"}, "[6]": {"conditions": "cardiomyocytes from TAC animals"}},
  "note": "Where no end group is shown, it is not given here.",
  "data": [
    {"sequence": "RFTRESLAAIE [DECA-11, RFTRESLAAIE]", "values": [
      {"measurement": "capacitance of myocytes", "setting": "[1]; TAC animals, vs untreated TAC animals", "value": "significantly lower"},
      {"measurement": "IK1", "setting": "[1]; [5]", "value": "significantly increases IK1"},
      {"measurement": "density of INa", "setting": "[1]; [5]", "value": "increased the density of INa"},
      {"measurement": "IK1", "setting": "[1]; [6]", "value": "significantly increases IK1"},
      {"measurement": "density of INa", "setting": "[1]; [6]", "value": "significantly and markedly increased the density of INa"}
    ]},
    {"sequence": "RFTRESLAAIE (listed as Homo sapiens) [SEQ ID NO: 3]", "values": [
      {"measurement": "capacitance of myocytes", "setting": "[2]", "value": "significantly lower"},
      {"measurement": "density of IKir2.1", "setting": "human Kir2.1 channels", "value": "significantly increase"},
      {"measurement": "IK1", "setting": "[3]; Sham animals", "value": "significantly increases"},
      {"measurement": "density of IK1 compared with that recorded in Sham animals", "setting": "[3]; TAC animals pretreated with DECA-11 vs. Sham animals", "value": "not different"},
      {"measurement": "IK1", "setting": "[3]; TAC animals", "value": "significantly increases"},
      {"measurement": "INaL", "setting": "[4]", "value": "does not increase"}
    ]}
  ]
}
